Measurements reported in PMC5931096, “A Phase I study of the novel immunomodulatory agent PG545 (pixatimod) in subjects with advanced solid tumours” (British Journal of Cancer, 2018).

Assay: Phase I dose-escalation: safety, tolerability, DLT and MTD of weekly 1-h IV infusion
Format: in vivo
Details: Safety Set
Method: The study was an open-label, multicentre, phase 1 dose-escalation study using a 3 + 3 design. The primary objective was to determine the MTD of weekly administered PG545 via IV infusion. Secondary objectives were to characterize safety, tolerability, clinical activity, PK and PD biomarkers.
Patients continued treatment until disease progression, unacceptable toxicity or withdrawal (either voluntarily or investigator-decision).
All patients were assessed for safety, those who received at least one dose of PG545 were evaluated for efficacy. Safety assessment included the incidence of all adverse events (AEs), irrespective of relationship to study drug, according to the National Cancer Institute Common Terminology Criteria for Adverse Events, version 4.0, and the incidence of patients experiencing dose modifications and/or premature discontinuation of study drug. Dose-limiting toxicities (DLTs) used to determine the MTD were defined as occurring during Cycle 1 of treatment only and related to PG545 according to investigator assessment. If no DLT occurred in the first three subjects, the next three-subject cohort was enrolled at the next highest available dose level. If a single DLT occurred, an additional three subjects was enrolled at the same dose level. Dose escalation continued until two subjects of the cohort experienced a DLT; this was defined as the toxic dose level. The dose-escalation phase was completed and MTD determined by reducing the dose to the next lowest dose compared to the toxic dose and expanding this cohort to at least 6 subjects.

CC(C)CCC[C@@H](C)[C@H]1CC[C@H]2[C@@H]3CC[C@H]4C[C@@H](O[C@@H]5O[C@H](COS(=O)(=O)O)[C@@H](O[C@H]6O[C@H](COS(=O)(=O)O)[C@@H](O[C@H]7O[C@H](COS(=O)(=O)O)[C@@H](O[C@H]8O[C@H](COS(=O)(=O)O)[C@@H](OS(=O)(=O)O)[C@H](OS(=O)(=O)O)[C@H]8OS(=O)(=O)O)[C@H](OS(=O)(=O)O)[C@H]7OS(=O)(=O)O)[C@H](OS(=O)(=O)O)[C@H]6OS(=O)(=O)O)[C@H](OS(=O)(=O)O)[C@H]5OS(=O)(=O)O)CC[C@]4(C)[C@H]3CC[C@]12C [PG545]
TEAE: Blood creatinine increased (Mild, Unrelated): 1 (4.3%) | TEAE: Chest discomfort (Mild, Unrelated): 1 (4.3%) | TEAE: Chest pain (Mild, Unrelated): 2 (8.7%) | TEAE: Constipation (Mild, Unrelated): 5 (21.7%) | TEAE: Cough (Mild, Unrelated): 2 (8.7%) | TEAE: Decreased appetite (Mild, Unrelated): 1 (4.3%) | TEAE: Deep vein thrombosis (Mild, Unrelated): 1 (4.3%) | TEAE: Depression (Mild, Unrelated): 3 (13.0%) | TEAE: Diarrhoea (Mild, Unrelated): 3 (13.0%) | TEAE: Dry mouth (Mild, Unrelated): 1 (4.3%) | TEAE: Dry skin (Mild, Unrelated): 1 (4.3%) | TEAE: Dyspepsia (Mild, Unrelated): 1 (4.3%) | TEAE: Dyspnoea (Mild, Unrelated): 5 (21.7%) | TEAE: Fatigue (Mild, Unrelated): 2 (8.7%) | TEAE: Fungal infection (Mild, Unrelated): 1 (4.3%) | TEAE: Gastroesophageal reflux disease (Mild, Unrelated): 1 (4.3%) | TEAE: Gastrointestinal disorders (Mild, Unrelated): 13 (56.5%) | TEAE: General disorders and administration site conditions (Mild, Unrelated): 7 (30.4%) | TEAE: Haematochezia (Mild, Unrelated): 1 (4.3%) | TEAE: Headache (Mild, Unrelated): 1 (4.3%) | TEAE: Hypercalcaemia (Mild, Unrelated): 1 (4.3%) | TEAE: Hypertension (second line of this name) (Mild, Unrelated): 1 (4.3%) | TEAE: Hypokalaemia (Mild, Unrelated): 1 (4.3%) | TEAE: Infections and infestations (Mild, Unrelated): 4 (17.4%) | TEAE: Influenza like illness (Mild, Unrelated): 1 (4.3%) | TEAE: Insomnia (Mild, Unrelated): 3 (13.0%) | TEAE: Investigations (Mild, Unrelated): 3 (13.0%) | TEAE: Lethargy (Mild, Unrelated): 2 (8.7%) | TEAE: Malaise (Mild, Unrelated): 1 (4.3%) | TEAE: Metabolism and nutritional disorders (Mild, Unrelated): 2 (8.7%) | TEAE: Mucosal inflammation (Mild, Unrelated): 2 (8.7%) | TEAE: Musculoskeletal and connective tissue disorders (Mild, Unrelated): 5 (21.7%) | TEAE: Musculoskeletal chest pain (Mild, Unrelated): 1 (4.3%) | TEAE: Nausea (Mild, Unrelated): 3 (13.0%) | TEAE: Nervous system disorders (Mild, Unrelated): 5 (21.7%) | TEAE: Neutrophil count increased (Mild, Unrelated): 1 (4.3%) | TEAE: Onycholysis (Mild, Unrelated): 1 (4.3%) | TEAE: Oropharyngeal pain (Mild, Unrelated): 1 (4.3%) | TEAE: Pain (Mild, Unrelated): 1 (4.3%) | TEAE: Pain in extremity (Mild, Unrelated): 2 (8.7%) | TEAE: Pruritus (Mild, Unrelated): 1 (4.3%) | TEAE: Psychiatric disorders (Mild, Unrelated): 5 (21.7%) | TEAE: Respiratory, thoracic and mediastinal disorders (Mild, Unrelated): 6 (26.1%) | TEAE: Skin and subcutaneous tissue disorders (Mild, Unrelated): 3 (13.0%) | TEAE: Upper respiratory tract infection (Mild, Unrelated): 2 (8.7%) | TEAE: Vascular disorders (Mild, Unrelated): 2 (8.7%) | TEAE: Vomiting (Mild, Unrelated): 5 (21.7%) | TEAE: Vulvovaginal candidiasis (Mild, Unrelated): 1 (4.3%) | TEAE: White blood cell count increased (Mild, Unrelated): 1 (4.3%) | TEAE: aPTT prolonged (Mild, Unrelated): 1 (4.3%) | TEAE: At least one event (Moderate, Related): 13 (56.5%) | TEAE: Chills (Moderate, Related): 2 (8.7%) | TEAE: Constipation (Moderate, Related): 1 (4.3%) | TEAE: Decreased appetite (Moderate, Related): 2 (8.7%) | TEAE: Dehydration (Moderate, Related): 1 (4.3%) | TEAE: Diarrhoea (Moderate, Related): 1 (4.3%) | TEAE: Dyspnoea (Moderate, Related): 1 (4.3%) | TEAE: Fall (Moderate, Related): 1 (4.3%) | TEAE: Fatigue (Moderate, Related): 2 (8.7%) | TEAE: GGT increased (Moderate, Related): 1 (4.3%) | TEAE: Gastrointestinal disorders (Moderate, Related): 4 (17.4%) | TEAE: General disorders and administration site conditions (Moderate, Related): 4 (17.5%) | TEAE: Hypercholesterolaemia (Moderate, Related): 2 (8.7%) | TEAE: Hyperlipidaemia (Moderate, Related): 1 (4.3%) | TEAE: Hypertension (Moderate, Related): 2 (8.7%) | TEAE: Infusion related reaction (Moderate, Related): 4 (17.4%) | TEAE: Injury, poisoning and procedural complications (Moderate, Related): 5 (21.7%) | TEAE: Investigations (Moderate, Related): 1 (4.3%) | TEAE: Lethargy (Moderate, Related): 1 (4.3%) | TEAE: Metabolism and nutritional disorders (Moderate, Related): 4 (17.4%) | TEAE: Nausea (Moderate, Related): 1 (4.3%) | TEAE: Nervous system disorders (Moderate, Related): 1 (4.3%) | TEAE: Pyrexia (Moderate, Related): 1 (4.3%) | TEAE: Respiratory, thoracic and mediastinal disorders (Moderate, Related): 1 (4.3%) | TEAE: Vascular disorders (Moderate, Related): 2 (8.7%) | TEAE: Vomiting (Moderate, Related): 1 (4.3%) | TEAE: AST increased (Moderate, Unrelated): 1 (4.3%) | TEAE: Abdominal distension (Moderate, Unrelated): 1 (4.3%) | TEAE: Abdominal pain (Moderate, Unrelated): 3 (13.0%) | TEAE: Abdominal pain lower (Moderate, Unrelated): 1 (4.3%) | TEAE: Abdominal pain upper (Moderate, Unrelated): 2 (8.7%) | TEAE: Anaemia (Moderate, Unrelated): 2 (8.7%) | TEAE: Arthralgia (Moderate, Unrelated): 1 (4.3%) | TEAE: At least one event (Moderate, Unrelated): 14 (60.9%) | TEAE: Back pain (Moderate, Unrelated): 3 (13.0%) | TEAE: Blood ALP increased (Moderate, Unrelated): 1 (4.3%) | TEAE: Blood and lymphatic system disorders (Moderate, Unrelated): 2 (8.7%) | TEAE: Blood bilirubin increased (Moderate, Unrelated): 1 (4.3%) | TEAE: Constipation (Moderate, Unrelated): 1 (4.3%) | TEAE: Cough (Moderate, Unrelated): 1 (4.3%) | TEAE: Decreased appetite (Moderate, Unrelated): 3 (13.0%) | TEAE: Depression (Moderate, Unrelated): 1 (4.3%) | TEAE: Diplopia (Moderate, Unrelated): 1 (4.3%) | TEAE: Dry mouth (Moderate, Unrelated): 1 (4.3%) | TEAE: Dyspnoea (Moderate, Unrelated): 3 (13.0%) | TEAE: Eye disorders (Moderate, Unrelated): 1 (4.3%) | TEAE: Fatigue (Moderate, Unrelated): 3 (13.0%) | TEAE: GGT increased (Moderate, Unrelated): 1 (4.3%) | TEAE: Gait disturbance (Moderate, Unrelated): 1 (4.3%) | TEAE: Gastrointestinal disorders (Moderate, Unrelated): 6 (26.1%)
